For assay [1], the system named is HPV-31 specific DNA in HPV-31-infected CIN612 9E keratinocytes. Nature of the assay: Long-term study, HPV-31 specific DNA (Southern Blot). The class given is cell-based, human papilloma virus. Here is the method: HPV-31 infected cells (3×10^6) were dispensed into 14.5 cm dishes containing fresh E medium and 1×10^6 cells of mitomycin C-treated 3T3 fibroblast feeders. The dishes were incubated in a CO2 incubator under 5% CO2 at 37° C. in 100% humidity. Human A431 epithelial cancer cells were used as HPV-uninfected negative controls. After 6 hr incubation, the cell culture medium was removed and fresh E medium containing 0.85 g/L NaHCO3 and a test compound at concentrations of 10 and 3.3 μg/mL, or control (interferon γ at 200 IU/mL) were added. For each concentration, 4 dishes were prepared. The dishes were incubated at 37° C. in a CO2 incubator. The culture medium was replaced to new E medium containing each concentration of the test compound or control in every 72 hrs. After seven days, or when untreated cells became confluent, one dish of each group was harvested for DNA/RNA extraction, followed by Southern/Northern Blot analysis; and one dish was trypsinized, cell number were determined and cells were seeded in three new dishes, treated and cultured as described above. This procedure was repeated for 9 passages. During these passages, morphology of cells and cell density were monitored.
Effect on HPV-31 specific DNA and RNA: DNA and RNA were analyzed in Southern and Northern Blot gels for HPV-31 specific sequences. X-ray films were scanned and optical densities of HPV-31 specific DNA and major mRNA species were integrated. Time curves were established by plotting integrated values against number of passages for each treatment dose. The T50 (time required to reduce the level to 50% of control) was determined from the time curves from crossing points of time curves with a line parallel to the x-axis corresponding to 50% of integrals of untreated control sample.

The test system of assay [2] is Herpes simplex virus type-2 (HSV-2). Nature of the assay: Inhibition of HSV-2 (plaque assay; Calu-6 infected, RITA cells for plaques). The class given is cell-based. Here is the method: Calu-6 cells and RITA cells were grown in DMEM cell culture medium containing 10% fetal calf serum in CO2 incubator under 5% CO2 at 37° C. with 100% humidity.
For HSV-2 inhibition, Calu-6 cells were seeded in 96 well plates at a density of 3×10^6 cells per plate in the DMEM cell culture medium. The plates were incubated at 37° C. in the presence of 5% CO2 for 24 hr. The DMEM cell culture medium in the plates was removed and the cells were infected with Herpes simplex virus type-2 at 50 plaque forming units per well. After incubation at 37° C. for 60 min, test compounds in DMEM cell culture medium at a series of concentrations were added. The plates were incubated at 37° C. in the presence of 5% CO2 for 48 hr. The plates were frozen at −20° C. prior to further analysis. After thawing at room temperature, supernatants containing infectious virus particles were prepared by centrifuging the supernatant from each well at 18,000 g at 4° C. for 5 min. The supernatant was further diluted before assay.
RITA cells were seeded in 24 well Linbra plates at a density of 4×10^6 cells per plate in 2 mL of DMEM cell culture medium. The plates were incubated at 37° C. in the presence of 5% CO2 for 24 hr. After the removal of the cell culture medium, 0.1 mL of the diluted supernatants was added and the plates were incubated at 37 C for 1 hr. DMEM cell medium containing 10% fetal calf serum and 0.5% methyl cellulose was added and the plates were incubated at 37 for 48 hr. The plates were then washed with PBS, fixed with 3% formaldehyde solution containing 0.9% NaCl for 1 min, washed by water for 10 sec, and dried overnight. For detection, the plates were then stained with crystal violet solution for 5 min at room temperature, washed 5 times with water, and dried at room temperature overnight. The number of plaques was determined macroscopically. The number of plaques per well was then multiplied with the dilution factor. Dose response curves were obtained by plotting the number of plaques/0.1 mL against compound concentration. The therapeutic index was also calculated for each compound by dividing LD50 with IC50.

In brackets after ≈: the same amount, converted by molar mass. Where two headings read alike, the source gives them in different places.

Usually IC50 stands for the point on the concentration scale where inhibition reaches its midpoint. A high value points to a need for much substance. Take `S=C(S)OC1CC2CC1C1CCCC21` (single isomer, unassigned; (-)) [(−)-Enantiomer 1A, (−)-O-exo/C-exo-tricyclo[5.2.1.0^2,6]-dec-9-yl-xanthic acid]: the “T50 DNA” value in assay [1] (3.3 μg/mL) was 2.23 passages; in assay [1] (10 μg/mL, listed as (−)-enantiomer 1A) it was < 1 passages; in assay [1] (10 μg/mL, listed as Cmpd 1A), <1 passages. In assay [1] (3.3 μg/mL or 10 μg/mL), the “HPV-31 specific DNA content” value is listed as “continuous reductions”. In addition, the activity at 10 µg/mL was < 5% in assay [1] (Human papillomavirus, Keratinocyte, 10 μg/mL, after 6 passages, read-out: number of viral genomes per cell, reduced to) and < 1% in assay [1] (Human papillomavirus, Keratinocyte, 10 μg/mL, after 9 passages, read-out: viral DNA remaining). Besides, the inhibition at 10 µg/mL in assay [1] (Human papillomavirus, Keratinocyte, 10 μg/mL, after a single passage, read-out: reduction of number of viral genomes per cell) was > 50%. In assay [2] (Calu-6 cells, 48 hr, 50 plaque forming units per well), the IC50 was 9.08 ± 3.40 µg/mL (≈ 39.8 µM). Further, in assay [2] (LD50 (Calu-6) divided by IC50 (HSV-2), 2880 min), the “Therapeutic Index” value is 10.4.

Values taken from patent publication US20100240746A1, “STEREOISOMERS OF TRICYCLODECAN-9-YL-XANTHOGENATE” (LUMAVITA AG, priority 2007, published 2010).
